Experimental data reported in patent US4684664A, “Derivatives of β-(4-isocyano-1,2,3,4-diepoxycyclopentyl) acrylic acid” (Kureha Kagaku Kogyo Kabushiki Kaisha, priority 1984, dated 1987).
Converted amounts (≈) assume the structure as drawn.

Legend:
Assay type in all cases: cell-based
[1] = test system: Staphylococcus aureus FDA 209PJc-1; assay: Antibacterial activity, agar-dilution MIC, organism No. 1; conditions: Staphylococcus aureus, FDA209PJC1; Organism No. 1, bouillon-agar; read-out: Minimum Inhibitory Concentration
How it was run: (§1)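 MICs were determined by agar dilution on bouillon-agar medium. The value is the minimum concentration of specimen inhibiting growth, expressed as μg/ml of culture medium.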

[2] = test system: Staphylococcus aureus Terajima; assay: Antibacterial activity, agar-dilution MIC, organism No. 2; conditions: Staphylococcus aureus; Organism No. 2, bouillon-agar; read-out: Minimum Inhibitory Concentration
How it was run: as §1

[3] = test system: Staphylococcus aureus MS 353; assay: Antibacterial activity, agar-dilution MIC, organism No. 3; conditions: Staphylococcus aureus, MS353; Organism No. 3, bouillon-agar; read-out: Minimum Inhibitory Concentration
How it was run: as §1

[4] = test system: Streptococcus pyogenes Cook; assay: Antibacterial activity, agar-dilution MIC, organism No. 4; conditions: Streptococcus pyogenes; Organism No. 4, bouillon-agar; read-out: Minimum Inhibitory Concentration
How it was run: as §1

[5] = test system: Escherichia coli NIHJ-JC-2; assay: Antibacterial activity, agar-dilution MIC, organism No. 5; conditions: Escherichia coli, NIHJJC2; Organism No. 5, bouillon-agar; read-out: Minimum Inhibitory Concentration
How it was run: as §1

[6] = test system: Escherichia coli K12 C600 IAM 1264; assay: Antibacterial activity, agar-dilution MIC, organism No. 6; conditions: Escherichia coli, IAM1264; Organism No. 6, bouillon-agar; read-out: Minimum Inhibitory Concentration
How it was run: as §1

[7] = test system: Klebsiella pneumoniae PCI-602; assay: Antibacterial activity, agar-dilution MIC, organism No. 7; conditions: Klebsiella pneumoniae, PCI602; Organism No. 7, bouillon-agar; read-out: Minimum Inhibitory Concentration
How it was run: as §1

[8] = test system: Salmonella typhimurium IID 971; assay: Antibacterial activity, agar-dilution MIC, organism No. 8; conditions: Salmonella enterica; Organism No. 8, bouillon-agar; read-out: Minimum Inhibitory Concentration
How it was run: as §1

Salmonella typhi 901 = assay: Antibacterial activity, agar-dilution MIC, organism No. 9; conditions: Salmonella enterica, TYPHI, read-out: Minimum Inhibitory Concentration
How it was run: as §1

[9] = test system: Salmonella paratyphi-A 1015; assay: Antibacterial activity, agar-dilution MIC, organism No. 10; conditions: Salmonella enterica, PARATYPHI, read-out: Minimum Inhibitory Concentration
How it was run: as §1

[10] = test system: Salmonella shottmuelleri 8006; assay: Antibacterial activity, agar-dilution MIC, organism No. 11; conditions: Salmonella, 8006; Organism No. 11, bouillon-agar; read-out: Minimum Inhibitory Concentration
How it was run: as §1

[11] = test system: Salmonella enteritidis G 14; assay: Antibacterial activity, agar-dilution MIC, organism No. 12; conditions: Salmonella enterica, ENTERITIDIS; Organism No. 12, bouillon-agar; read-out: Minimum Inhibitory Concentration
How it was run: as §1

[12] = test system: Serratia marcescens IAM 1184; assay: Antibacterial activity, agar-dilution MIC, organism No. 13; conditions: Serratia marcescens, IAM1184; Organism No. 13, bouillon-agar; read-out: Minimum Inhibitory Concentration
How it was run: as §1

[13] = test system: Bacillus subtilis ATCC 6633; assay: Antibacterial activity, agar-dilution MIC, organism No. 14; conditions: Bacillus subtilis, ATCC6633; Organism No. 14, bouillon-agar; read-out: Minimum Inhibitory Concentration
How it was run: as §1

[14] = test system: Pseudomonas aeruginosa IFO 3445; assay: Antibacterial activity, agar-dilution MIC, organism No. 15; conditions: Pseudomonas aeruginosa, IFO3445; Organism No. 15, bouillon-agar; read-out: Minimum Inhibitory Concentration
How it was run: as §1

[15] = test system: Pseudomonas aeruginosa NCTC 10490; assay: Antibacterial activity, agar-dilution MIC, organism No. 16; conditions: Pseudomonas aeruginosa, NCTC10490; Organism No. 16, bouillon-agar; read-out: Minimum Inhibitory Concentration
How it was run: as §1

[16] = test system: Pseudomonas aeruginosa PAO 1; assay: Antibacterial activity, agar-dilution MIC, organism No. 17; conditions: Pseudomonas aeruginosa, PAO1; Organism No. 17, bouillon-agar; read-out: Minimum Inhibitory Concentration
How it was run: as §1

[17] = test system: Proteus morganii IFO 3848; assay: Antibacterial activity, agar-dilution MIC, organism No. 18; conditions: Morganella morganii, IFO3848; Organism No. 18, bouillon-agar; read-out: Minimum Inhibitory Concentration
How it was run: as §1

[18] = test system: Proteus mirabilis IFO 3849; assay: Antibacterial activity, agar-dilution MIC, organism No. 19; conditions: Proteus mirabilis, IFO3849; Organism No. 19, bouillon-agar; read-out: Minimum Inhibitory Concentration
How it was run: as §1

Proteus vulgaris OX-19 = assay: Antibacterial activity, agar-dilution MIC, organism No. 20; conditions: Proteus vulgaris, OX19; Organism No. 20, bouillon-agar; read-out: Minimum Inhibitory Concentration
How it was run: as §1

Proteus vulgaris HX-19 = assay: Antibacterial activity, agar-dilution MIC, organism No. 21; conditions: Proteus vulgaris, HX19; Organism No. 21, bouillon-agar; read-out: Minimum Inhibitory Concentration
How it was run: as §1

[19] = test system: Proteus rettgeri IFO 3850; assay: Antibacterial activity, agar-dilution MIC, organism No. 22; conditions: Providencia rettgeri, IFO3850; Organism No. 22, bouillon-agar; read-out: Minimum Inhibitory Concentration
How it was run: as §1

[20] = test system: Enterobacter aerogenes ATCC 13048; assay: Antibacterial activity, agar-dilution MIC, organism No. 23; conditions: Klebsiella aerogenes, ATCC13048; Organism No. 23, bouillon-agar; read-out: Minimum Inhibitory Concentration
How it was run: as §1

Enterobacter cloacae 963 = assay: Antibacterial activity, agar-dilution MIC, organism No. 24; conditions: Enterobacter cloacae, 963; Organism No. 24, bouillon-agar; read-out: Minimum Inhibitory Concentration
How it was run: as §1

[21] = test system: Micrococcus luteus ATCC 9341; assay: Antibacterial activity, agar-dilution MIC, organism No. 25; conditions: Micrococcus luteus, ATCC9341; Organism No. 25, bouillon-agar; read-out: Minimum Inhibitory Concentration
How it was run: as §1

[22] = test system: Streptococcus pyogenes IFO 3340; assay: Antibacterial activity, agar-dilution MIC, organism No. 26; conditions: Streptococcus pyogenes, IFO3340; Organism No. 26, bouillon-agar; read-out: Minimum Inhibitory Concentration
How it was run: as §1

[23] = test system: Streptococcus faecium IFO 3826; assay: Antibacterial activity, agar-dilution MIC, organism No. 27; conditions: Enterococcus faecium, IFO3826; Organism No. 27, bouillon-agar; read-out: Minimum Inhibitory Concentration
How it was run: as §1

[24] = test system: Mycoplasma pneumoniae IID817; assay: Antimycoplasmal activity, MIC by phenol red colour change, organism No. 28; conditions: Mycoplasma, IID817; Organism No. 28, PPLO broth + 1% glucose, 37° C.; read-out: Minimum Inhibitory Concentration (MIC)
Protocol: Mycoplasma pneumoniae IID817 was used as the test microorganism in a culture medium prepared by adding 1% of glucose to "PPLO broth (manufactured by Difco Co.) liquid culture medium" at 37° C. with phenol red as an indicator, thereby culturing the test microorganism.

[25] = test system: Candida albicans IAM 4905; assay: Antifungal activity, agar-dilution MIC, organism No. 29; conditions: Candida albicans, IAM4905; Organism No. 29, bouillon-agar; read-out: Minimum Inhibitory Concentration
How it was run: as §1

[26] = test system: Aspergillus niger IFO 6342; assay: Antifungal activity, agar-dilution MIC, organism No. 30; conditions: Aspergillus niger, IFO6342; Organism No. 30, bouillon-agar; read-out: Minimum Inhibitory Concentration
How it was run: as §1

| SMILES | MIC [1] [µg/mL] | MIC [2] [µg/mL] | MIC [3] [µg/mL] | MIC [4] [µg/mL] | MIC [5] [µg/mL] | MIC [6] [µg/mL] | MIC [7] [µg/mL] | MIC [8] [µg/mL] | MIC (Salmonella typhi 901) [µg/mL] | MIC [9] [µg/mL] | MIC [10] [µg/mL] | MIC [11] [µg/mL] | MIC [12] [µg/mL] | MIC [13] [µg/mL] | MIC [14] [µg/mL] | MIC [15] [µg/mL] | MIC [16] [µg/mL] | MIC [17] [µg/mL] | MIC [18] [µg/mL] | MIC (Proteus vulgaris OX-19) [µg/mL] | also measured |
| --- | --- | --- | --- | --- | --- | --- | --- | --- | --- | --- | --- | --- | --- | --- | --- | --- | --- | --- | --- | --- | --- |
| [C-]#[N+]C12CC3(/C=C/C(=O)Nc4ccc(I)cc4)OC3C1O2 (stereo not drawn) [compound 45] | 12.5 (≈ 31.7 µM) | > 200 | 12.5 (≈ 31.7 µM) | > 200 | > 200 | > 200 | 6.25 (≈ 15.9 µM) | > 200 | > 200 | > 200 | 50 (≈ 127 µM) | > 200 | > 200 | > 200 | > 200 | > 200 | > 200 | 100 (≈ 254 µM) | > 200 | 0.78 (≈ 1.98 µM) | MIC (Proteus vulgaris HX-19): 0.78 µg/mL (≈ 1.98 µM); MIC [19]: > 200 µg/mL; MIC [20]: > 200 µg/mL; MIC (Enterobacter cloacae 963): > 200 µg/mL; MIC [21]: < 0.05 µg/mL; MIC [22]: > 200 µg/mL; MIC [23]: > 200 µg/mL; MIC [24]: < 0.2 µg/mL; MIC [25]: 3.13 µg/mL (≈ 7.94 µM); MIC [26]: 3.13 µg/mL (≈ 7.94 µM) |
| [C-]#[N+]C12CC3(/C=C/C(=O)Nc4cccc(C(F)(F)F)c4)OC3C1O2 (stereo not drawn) [compound 47] | < 0.05 | 0.2 (≈ 0.595 µM) | < 0.05 | 200 (≈ 595 µM) | 200 (≈ 595 µM) | 200 (≈ 595 µM) | < 0.05 | 3.13 (≈ 9.31 µM) | 3.13 (≈ 9.31 µM) | 3.13 (≈ 9.31 µM) | 0.1 (≈ 0.297 µM) | 3.13 (≈ 9.31 µM) | 25 (≈ 74.3 µM) | 0.78 (≈ 2.32 µM) | > 200 | > 200 | > 200 | < 0.05 | > 200 | < 0.05 | MIC (Proteus vulgaris HX-19): < 0.05 µg/mL; MIC [19]: 50 µg/mL (≈ 149 µM); MIC [20]: > 200 µg/mL; MIC (Enterobacter cloacae 963): > 200 µg/mL; MIC [21]: 0.78 µg/mL (≈ 2.32 µM); MIC [22]: 0.39 µg/mL (≈ 1.16 µM); MIC [23]: 3.13 µg/mL (≈ 9.31 µM); MIC [24]: < 0.2 µg/mL; MIC [25]: 1.56 µg/mL (≈ 4.64 µM); MIC [26]: 3.13 µg/mL (≈ 9.31 µM) |
